Laboratory results from PubChem BioAssay (NCI).
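Step 1: Grow cells in 96-well plates. Step 2: Expose to compound for 48 hours at 5 concentrations. Step 3: Interpolate endpoints linearly; if unreached, use highest concentration. TGI marks complete inhibition of growth.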

Columns and labels:
Experiment in all cases: DTP human tumour cell line panel, 48 h
SNB-78 CNS = system: SNB-78 CNS
SNB-19 CNS = system: SNB-19 CNS
HL-60(TB) leukemia = system: HL-60(TB) leukemia
A498 renal = system: A498 renal
SF-295 CNS = system: SF-295 CNS
UACC-62 melanoma = system: UACC-62 melanoma
LXFL 529 NSCLC = system: LXFL 529 NSCLC
IGROV1 ovarian = system: IGROV1 ovarian
TK-10 renal = system: TK-10 renal
UO-31 renal = system: UO-31 renal
UACC-257 melanoma = system: UACC-257 melanoma
COLO 205 colon = system: COLO 205 colon
KM12 colon = system: KM12 colon
HCT-116 colon = system: HCT-116 colon
DMS 114 small cell lung = system: DMS 114 small cell lung
786-0 renal = system: 786-0 renal
RXF 393 renal = system: RXF 393 renal
A549 NSCLC = system: A549 NSCLC
OVCAR-4 ovarian = system: OVCAR-4 ovarian
RPMI-8226 leukemia = system: RPMI-8226 leukemia
M14 melanoma = system: M14 melanoma
HCT-15 colon = system: HCT-15 colon
SK-MEL-2 melanoma = system: SK-MEL-2 melanoma
NCI-H226 lung = system: NCI-H226 lung
LOX IMVI melanoma = system: LOX IMVI melanoma
OVCAR-8 ovarian = system: OVCAR-8 ovarian
SK-MEL-28 melanoma = system: SK-MEL-28 melanoma
NCI-H23 lung = system: NCI-H23 lung
SR leukemia = system: SR leukemia
DMS 273 small cell lung = system: DMS 273 small cell lung
SF-539 CNS = system: SF-539 CNS
SW-620 colon = system: SW-620 colon
SN12C renal = system: SN12C renal
U251 CNS = system: U251 CNS
KM20L2 colon = system: KM20L2 colon
K-562 leukemia = system: K-562 leukemia
M19-MEL melanoma = system: M19-MEL melanoma
NCI-H460 lung = system: NCI-H460 lung
HOP-92 NSCLC = system: HOP-92 NSCLC
CAKI-1 renal = system: CAKI-1 renal
HOP-62 NSCLC = system: HOP-62 NSCLC
MOLT-4 leukemia = system: MOLT-4 leukemia
CCRF-CEM leukemia = system: CCRF-CEM leukemia
NCI-H522 lung = system: NCI-H522 lung
SF-268 CNS = system: SF-268 CNS
OVCAR-5 ovarian = system: OVCAR-5 ovarian
MALME-3M melanoma = system: MALME-3M melanoma
SNB-75 CNS = system: SNB-75 CNS
SK-OV-3 ovarian = system: SK-OV-3 ovarian
ACHN renal = system: ACHN renal
HOP-18 NSCLC = system: HOP-18 NSCLC
HCC-2998 colon = system: HCC-2998 colon
HT29 colon = system: HT29 colon
DLD-1 colon = system: DLD-1 colon
SK-MEL-5 melanoma = system: SK-MEL-5 melanoma
OVCAR-3 ovarian = system: OVCAR-3 ovarian
DU-145 prostate = system: DU-145 prostate
NCI/ADR-RES ovarian = system: NCI/ADR-RES ovarian
MDA-MB-435 = system: MDA-MB-435
EKVX NSCLC = system: EKVX NSCLC
MDA-N = system: MDA-N
HS 578T breast = system: HS 578T breast
MCF7 breast = system: MCF7 breast
PC-3 prostate = system: PC-3 prostate
T-47D breast = system: T-47D breast
MDA-MB-231 breast = system: MDA-MB-231 breast
BT-549 breast = system: BT-549 breast

COC(=O)NC(=O)c1cn(C2CCCCC2)c(=O)[nH]c1=O
TGI (SNB-78 CNS): > 100 µM | TGI (SNB-19 CNS): > 100 µM | TGI (HL-60(TB) leukemia): > 100 µM | TGI (A498 renal): > 100 µM | TGI (SF-295 CNS): > 100 µM | TGI (UACC-62 melanoma): > 100 µM | TGI (LXFL 529 NSCLC): > 100 µM | TGI (IGROV1 ovarian): > 100 µM | TGI (TK-10 renal): > 100 µM | TGI (UO-31 renal): > 100 µM | TGI (UACC-257 melanoma): > 100 µM | TGI (COLO 205 colon): > 100 µM | TGI (KM12 colon): > 100 µM | TGI (HCT-116 colon): > 100 µM | TGI (DMS 114 small cell lung): > 100 µM | TGI (786-0 renal): > 100 µM | TGI (RXF 393 renal): > 100 µM | TGI (A549 NSCLC): > 100 µM | TGI (OVCAR-4 ovarian): > 100 µM | TGI (RPMI-8226 leukemia): > 100 µM | TGI (M14 melanoma): > 100 µM | TGI (HCT-15 colon): > 100 µM | TGI (SK-MEL-2 melanoma): > 100 µM | TGI (NCI-H226 lung): > 100 µM | TGI (LOX IMVI melanoma): > 100 µM | TGI (OVCAR-8 ovarian): > 100 µM | TGI (SK-MEL-28 melanoma): > 100 µM | TGI (NCI-H23 lung): > 100 µM | TGI (SR leukemia): > 100 µM | TGI (DMS 273 small cell lung): > 100 µM | TGI (SF-539 CNS): > 100 µM | TGI (SW-620 colon): > 100 µM | TGI (SN12C renal): > 100 µM | TGI (U251 CNS): > 100 µM | TGI (KM20L2 colon): > 100 µM | TGI (K-562 leukemia): > 100 µM | TGI (M19-MEL melanoma): > 100 µM | TGI (NCI-H460 lung): > 100 µM | TGI (HOP-92 NSCLC): > 100 µM | TGI (CAKI-1 renal): > 100 µM | TGI (HOP-62 NSCLC): > 100 µM | TGI (MOLT-4 leukemia): > 100 µM | TGI (CCRF-CEM leukemia): > 100 µM | TGI (NCI-H522 lung): > 100 µM | TGI (SF-268 CNS): > 100 µM | TGI (OVCAR-5 ovarian): > 100 µM | TGI (MALME-3M melanoma): > 100 µM | TGI (SNB-75 CNS): > 100 µM | TGI (SK-OV-3 ovarian): > 100 µM | TGI (ACHN renal): > 100 µM | TGI (HOP-18 NSCLC): > 100 µM | TGI (HCC-2998 colon): > 100 µM | TGI (HT29 colon): > 100 µM | TGI (DLD-1 colon): > 100 µM | TGI (SK-MEL-5 melanoma): > 100 µM | TGI (OVCAR-3 ovarian): > 100 µM

Nc1nc(OCC2CCCCC2)c2[nH]cnc2n1
TGI (SNB-19 CNS): > 100 µM | TGI (HL-60(TB) leukemia): 59.8 µM | TGI (A498 renal): 54.4 µM | TGI (SF-295 CNS): > 75.6 µM | TGI (UACC-62 melanoma): > 74.6 µM | TGI (IGROV1 ovarian): > 48.6 µM | TGI (TK-10 renal): 30.5 µM | TGI (UO-31 renal): 38.2 µM | TGI (UACC-257 melanoma): 61.8 µM | TGI (COLO 205 colon): > 56.9 µM | TGI (KM12 colon): > 100 µM | TGI (HCT-116 colon): 74 µM | TGI (786-0 renal): > 88.1 µM | TGI (RXF 393 renal): 57.1 µM | TGI (A549 NSCLC): 81.5 µM | TGI (OVCAR-4 ovarian): 42.3 µM | TGI (RPMI-8226 leukemia): 55.5 µM | TGI (M14 melanoma): 57.8 µM | TGI (HCT-15 colon): > 100 µM | TGI (SK-MEL-2 melanoma): 22.1 µM | TGI (NCI-H226 lung): 73.7 µM | TGI (LOX IMVI melanoma): 37.7 µM | TGI (OVCAR-8 ovarian): > 100 µM | TGI (SK-MEL-28 melanoma): 99.2 µM | TGI (NCI-H23 lung): > 100 µM | TGI (SR leukemia): > 59.1 µM | TGI (SF-539 CNS): 45 µM | TGI (DU-145 prostate): > 64.3 µM | TGI (NCI/ADR-RES ovarian): > 100 µM | TGI (SW-620 colon): > 100 µM | TGI (MDA-MB-435): 60.7 µM | TGI (EKVX NSCLC): 61.9 µM | TGI (MDA-N): 58.3 µM | TGI (SN12C renal): 56.3 µM | TGI (U251 CNS): > 73.7 µM | TGI (K-562 leukemia): > 100 µM | TGI (HS 578T breast): > 44.5 µM | TGI (NCI-H460 lung): > 67.9 µM | TGI (MCF7 breast): > 100 µM | TGI (HOP-92 NSCLC): 42.7 µM | TGI (PC-3 prostate): 41.2 µM | TGI (CAKI-1 renal): 58 µM | TGI (HOP-62 NSCLC): 53.9 µM | TGI (MOLT-4 leukemia): > 68.8 µM | TGI (CCRF-CEM leukemia): 43.6 µM | TGI (NCI-H522 lung): 60.1 µM | TGI (T-47D breast): 30 µM | TGI (MDA-MB-231 breast): > 100 µM | TGI (SF-268 CNS): > 100 µM | TGI (OVCAR-5 ovarian): 53.1 µM | TGI (MALME-3M melanoma): > 50.4 µM | TGI (SNB-75 CNS): > 81 µM | TGI (SK-OV-3 ovarian): 68.5 µM | TGI (ACHN renal): 38.4 µM | TGI (HCC-2998 colon): > 67.8 µM | TGI (HT29 colon): 48.5 µM | TGI (BT-549 breast): > 72.9 µM | TGI (SK-MEL-5 melanoma): 67.2 µM | TGI (OVCAR-3 ovarian): 35.7 µM

NCCNCCCNC(=O)c1cc(-c2ccccc2)nc2ccccc12
TGI (SNB-19 CNS): > 100 µM | TGI (HL-60(TB) leukemia): > 100 µM | TGI (A498 renal): > 100 µM | TGI (SF-295 CNS): > 100 µM | TGI (UACC-62 melanoma): 46.3 µM | TGI (IGROV1 ovarian): > 100 µM | TGI (TK-10 renal): > 100 µM | TGI (UO-31 renal): > 100 µM | TGI (UACC-257 melanoma): 51.5 µM | TGI (COLO 205 colon): 30.9 µM | TGI (KM12 colon): > 100 µM | TGI (HCT-116 colon): > 100 µM | TGI (786-0 renal): 61.8 µM | TGI (RXF 393 renal): > 100 µM | TGI (A549 NSCLC): > 100 µM | TGI (RPMI-8226 leukemia): > 100 µM | TGI (M14 melanoma): 28.3 µM | TGI (HCT-15 colon): > 100 µM | TGI (SK-MEL-2 melanoma): 42.7 µM | TGI (NCI-H226 lung): > 100 µM | TGI (LOX IMVI melanoma): > 100 µM | TGI (OVCAR-8 ovarian): > 100 µM | TGI (SK-MEL-28 melanoma): 33 µM | TGI (NCI-H23 lung): > 100 µM | TGI (SR leukemia): 82.3 µM | TGI (SF-539 CNS): 36.7 µM | TGI (DU-145 prostate): > 100 µM | TGI (NCI/ADR-RES ovarian): > 100 µM | TGI (SW-620 colon): > 100 µM | TGI (MDA-MB-435): 43.5 µM | TGI (EKVX NSCLC): > 100 µM | TGI (MDA-N): 66.8 µM | TGI (SN12C renal): > 100 µM | TGI (U251 CNS): 36.6 µM | TGI (K-562 leukemia): 54.9 µM | TGI (HS 578T breast): > 100 µM | TGI (NCI-H460 lung): > 100 µM | TGI (MCF7 breast): > 100 µM | TGI (HOP-92 NSCLC): 55.4 µM | TGI (PC-3 prostate): > 100 µM | TGI (CAKI-1 renal): > 100 µM | TGI (HOP-62 NSCLC): > 100 µM | TGI (MOLT-4 leukemia): 52.3 µM | TGI (CCRF-CEM leukemia): 51.2 µM | TGI (NCI-H522 lung): 37.6 µM | TGI (T-47D breast): > 100 µM | TGI (MDA-MB-231 breast): > 100 µM | TGI (SF-268 CNS): > 100 µM | TGI (OVCAR-5 ovarian): > 100 µM | TGI (MALME-3M melanoma): 30.8 µM | TGI (SK-OV-3 ovarian): > 100 µM | TGI (ACHN renal): > 100 µM | TGI (HCC-2998 colon): 34.4 µM | TGI (HT29 colon): > 100 µM | TGI (BT-549 breast): > 100 µM | TGI (SK-MEL-5 melanoma): 30.5 µM | TGI (OVCAR-3 ovarian): > 100 µM
